Laboratory results as given in US6133299A, “Methods for treating neurodegenerative diseases and disorders using N-(2,6-disubstituted aromatic)-N'-pyridinyl ureas and other anticonvulsant compounds” (Warner-Lambert Company, priority 1993, dated 2000).

What was measured:
Hippocampal Slices [1] = experiment: Recovery of synaptic activity (EPSP) in hippocampal slices after hypoxia-hypoglycemia (Example 4); format: cell-based, rat (male Wistar); conditions: for recovery of EPSPs, overall effect: concentrations tested in Table 2
Experimental: Young male Wistar rats (150 to 250 g) were anesthetized with ketamine (200 mg/kg IP) and ether and were perfused transcardially with cold, oxygenated, low sodium-containing physiological buffer solution (252 mM sucrose, 3.5 mM KCl, 1.0 mM MgSO4, 20 mM CaC1, 26 mM NaHCO3, 1.25 mM NaH2 PO4, and 10 mM glucose) with 50 μM ketamine added. Brains were removed and hippocampi carefully excised. Hippocampi were sliced transversely at 450 μm and transferred into cold (4° C.) low-sodium buffer solution gassed with 95% O2, 5% CO2 at 31° C. After 45 minutes slices were transferred to oxygenated normal physiological solution (126 mM NaCl, 3.5 mM KCl, 1.0 mM MgSO4, 2.0 mM CaCl2, 20 mM NaHCO3, 1.25 mM NaH2 PO4, and 10 mM glucose) at 31° C. for at least 1 hour before experiments began. After preincubation, slices were transferred to a heated (36° C.), gassed incubation chamber where they were continuously superfused with gassed normal physiological solution. Evoked extracellular synaptic potentials (EPSPs) were obtained using glass micropipettes placed approximately 100 μm into the slice. Electrical stimulation was applied once per minute to the stratum radiatum by insulated paired nichrome wires (60 μm diameter). Stimuli consisted of 150 μA pulses lasting 0.4 msec. […] Data from a slice were used only if EPSP amplitude was greater than 2.0 mV before hypoxia-hypoglycemia.
Evoked potentials were recorded and analyzed with a digital computer interface. Experiments were started by recording for several minutes under normal conditions (95% O2, 5% CO2, 10 mM glucose). Then drug was added to the superfusion solution (or normal solution was continued in control experiments). After 10 minutes of drug superfusion, hypoxia-hypoglycemia was induced by switching to superfusion solution containing added drug with low glucose (2 mM) that was equilibrated with 95% N2 and 5% CO2. At the same time the slice chamber gas was switched to 95% N2 and 5% CO2. Hypoxia-hypoglycemia was continued for 12 minutes. After 12 minutes, 95% O2 and 10 mM glucose were returned to the slices and the superfusing solution. Following 15 minutes of reoxygenation, the experiment was ended. EPSPs were considered recovered if they returned to at least half of their original amplitude. The percentage of slices with recovered EPSPs were calculated for each condition.
This study was identical in design to Example 3 except that during the hypoxic period of 12 minutes, glucose was reduced from 10 mM to 2 mM rather than from 10 mM to zero as in Example 3.

Hippocampal Slices [2] = experiment: Effect on synaptic potentials / presynaptic action potential in slices before hypoxia; format: cell-based, rat (male Wistar); conditions: 500 μM
Experimental: Young male Wistar rats (150 to 250 g) were anesthetized with ketamine (200 mg/kg IP) and ether and were perfused transcardially with cold, oxygenated, low sodium-containing physiological buffer solution (252 mM sucrose, 3.5 mM KCl, 1.0 mM MgSO4, 20 mM CaC1, 26 mM NaHCO3, 1.25 mM NaH2 PO4, and 10 mM glucose) with 50 μM ketamine added. Brains were removed and hippocampi carefully excised. Hippocampi were sliced transversely at 450 μm and transferred into cold (4° C.) low-sodium buffer solution gassed with 95% O2, 5% CO2 at 31° C. After 45 minutes slices were transferred to oxygenated normal physiological solution (126 mM NaCl, 3.5 mM KCl, 1.0 mM MgSO4, 2.0 mM CaCl2, 20 mM NaHCO3, 1.25 mM NaH2 PO4, and 10 mM glucose) at 31° C. for at least 1 hour before experiments began. After preincubation, slices were transferred to a heated (36° C.), gassed incubation chamber where they were continuously superfused with gassed normal physiological solution. Evoked extracellular synaptic potentials (EPSPs) were obtained using glass micropipettes placed approximately 100 μm into the slice. […]
Evoked potentials were recorded and analyzed with a digital computer interface. […] The percentage of slices with recovered EPSPs were calculated for each condition.
Excitatory synaptic potential (EPSP) amplitude was measured before and during drug treatment in the 10-minute period preceding reduced oxygen and glucose. […]

[3] = test system: voltage-dependent sodium channels; conditions: cited from earlier work
[4] = test system: neuroprotective capabilities; experiment: Neuroprotective capabilities in vitro (general statement); format: cell-based
[5] = in vivo; cited from earlier work
[6] = test system: neuronal damage from ischemia; conditions: in vitro and in vivo; cited from earlier work
[7] = test system: Neuronal/Glial Cortical Cultures; experiment: Hypoxia-induced lactate dehydrogenase release (cell injury) in neuronal/glial cortical cultures; format: cell-based, rat (Sprague Dawley); conditions: Rattus norvegicus, read-out: % Inh (percent inhibition of the release of lactate dehydrogenase in comparison to hypoxic control cultures)
Experimental: An assay was conducted to compare the inhibitory action of various compounds which are the subject of the present invention. The assay measured the oxygen deprivation-induced neuronal cell death from various cortical cultures. Lactate dehydrogenase (LDH) is a cytosolic enzyme that is only present in the extracellular medium if cell membranes rupture, indicating cell death. Therefore, LDH release into the culture medium is a convenient assay of cell death. The results of Table 3 indicate that each of the compounds tested decreased neuronal cell death from hypoxia in vitro.
The uteri of Sprague Dawley rats in their 18th day of fetal gestation were removed under halothane anesthesia and placed in a chilled bath of magnesium and calcium-free Hank's balanced salt solution (HBSS). Cortical brain hemispheres were removed from individual fetuses and digested in 0.1% trypsin in HBSS for 15 minutes at room temperature. Digested tissue was washed three times with HBSS then dissociated into a single cell suspension by trituration with a glass pipette. […] One hundred microliters of this cell suspension was pipetted into individual wells of 96-well tissue culture plates previously coated with poly-L-lysine, then stored in a humidified incubator (37° C., 3% CO2). Glial cell growth was stopped by the addition of 100 μL of 45% DME, 45% HAM F12, and 10% Horse serum (10/0 DME/F12) containing 15 μg/mL of 5-fluoro-2-deoxyuridine and 35 μg/mL of uridine, 3 days after the initial plating. Cultures were fed at 2- or 3-day intervals thereafter by replacing 100 μL of spent medium with an identical volume of fresh 10/0 DME/F12.
Sixteen-day-old cultures were prepared for experiments by removing growth medium from each culture well and rinsing once with 250 μL of Mg^++ -free HBSS containing 1.8 mM Ca^++ and 1 g/L D-glucose (0 Mg-HBSS) Control and test agent solutions, prepared using 0 Mg-HBSS medium, were dispensed in 50 μL aliquots into individual test wells (Total volume/well=50 μL). All liquid medium preparations to this point were equilibrated with […], 5% CO2. Plates were placed into a 37° C., humidified, triple-gas incubator with O2 and CO2 levels maintained at 1% and 10%, respectively. Plates were removed after 7.5 hours of oxygen deprivation and restored to normoxic conditions (20% O2 /10% CO2, 37° C.) following a 50 μL addition to each well of appropriate control or test agent solutions containing 1.8 mM Ca^++, 1.6 mM Mg^++, and 7.0 g/L D-glucose. Final medium concentrations of 1.8 mM Ca^++, 0.8 mM Mg^++, and 4 g/L D-glucose were present during the reoxygenation period.
Medium concentrations of lactate dehydrogenase (LDH), a cytosolic enzyme normally retained by cells but released upon cell death, were determined for each well following an additional 16.5-hour normoxic exposure period. Individual 25 μL medium specimens were collected from each well and placed into wells of a clean 96-well microtiter plate containing 225 μL of 0.1 M KPO4 buffer (pH=7.5 at 25° C.) and 30 μg NADH (reduced […] adenine dinucleotide). After 10-minute incubation at 37° C., 30 μL of 2.4 mM sodium pyruvate was added to each well and plates were gently shaken to mix solution. Plates were immediately placed into a Multiscan MCC/340 plate reader and scanned for […] (excitation at 340 nm) for 1 minute at 5-second intervals. A kinetic analysis of the change in medium absorbance resulting from shifts in NADH concentrations was used, in combination with factors to correct for temperature, light path, and volume adjustments to determine medium LDH concentrations (IU/mL). Normoxic control baseline LDH levels were subtracted from both hypoxic control and test agent values prior to determining test agent effectiveness in preventing oxygen deprivation-induced injury.

calcium channels = conditions: concentrations similar to those tested; cited from earlier work

SMILES: CCN(CC)CC(=O)Nc1c(C)cccc1C [Lidocaine, lidocaine]
- Number Slices Recovered / Number Slices Tested (≥50% EPSP amplitude recovery after reoxygenation) (Hippocampal Slices [1]; 50 μM): 5/9
- Number Slices Recovered / Number Slices Tested (≥50% EPSP amplitude recovery after reoxygenation) (Hippocampal Slices [1]; 200 μM): 9/10
- protection from loss of EPSPs (Hippocampal Slices [1]; 200 μM): almost complete protection
- recovery of EPSPs, overall effect (Hippocampal Slices [1]): improves recovery of EPSPs at both concentrations tested
- recovery of EPSPs, overall effect (Hippocampal Slices [1]; listed as lidocaine): enhanced recovery of EPSPs
- effect on presynaptic action potential and EPSPs (Hippocampal Slices [2]): reversibly reduced both presynaptic action potential and EPSPs
- action on voltage-dependent sodium channels [3]: more selective for sodium channels
- neuroprotective capabilities [4]: shown in vitro to have neuroprotective capabilities
- peripheral hypotensive effects [5]: peripheral hypotensive effects

SMILES: O=C1NC(=O)C(c2ccccc2)(c2ccccc2)N1 [Phenytoin, phenytoin]
- effect on neuronal damage from ischemia [6]: preventing neuronal damage from ischemia both in vitro and in vivo
- Number Slices Recovered / Number Slices Tested (≥50% EPSP amplitude recovery after reoxygenation) (Hippocampal Slices [1]; 5 μM): 0/8
- Number Slices Recovered / Number Slices Tested (≥50% EPSP amplitude recovery after reoxygenation) (Hippocampal Slices [1]; 20 μM): 5/12
- Number Slices Recovered / Number Slices Tested (≥50% EPSP amplitude recovery after reoxygenation) (Hippocampal Slices [1]; 50 μM): 3/9
- recovery of EPSPs, overall effect (Hippocampal Slices [1]): enhanced recovery of EPSPs
- inhibition at 30 µM ([7]; 30 μM): 78%
- inhibition at 100 µM ([7]; 100 μM): 82%
- action on calcium channels (calcium channels): blocks a variety of calcium channels
- neuroprotective capabilities [4]: shown in vitro to have neuroprotective capabilities
